Assay results taken from PubChem BioAssay AID256 (DTP/NCI, 2004).
Values joined by “and” are separate entries in the source; they are usually repeats but may differ in a detail not shown here. Equal values may be shown once. Toxic doses and inconclusive results are not listed.

Tested on: CD2F1 mice, L1210 leukemia ip, survival T/C
Experiment: NCI In Vivo Anticancer Drug Screen. Data for tumor model L1210 Leukemia (intraperitoneal) in CD2F1 (CDF1) mice
Details: higher = longer survival
Procedure, shortened: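 Mice carrying a transplanted tumor received test compound or vehicle alone. The value is the measurement in the treated group divided by that in the vehicle-treated control group.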

NC(CSC(c1ccccc1)(c1ccccc1)c1ccccc1)C(=O)O (stereo unspecified)
T/C (endpoint: mean survival time, dose: 0.48 mg/kg/injection, schedule: Q03HX024 (oral), vehicle: saline): 103 % of control
T/C (endpoint: mean survival time, dose: 0.94 mg/kg/injection, schedule: Q03HX024 (oral), vehicle: saline): 105 % of control
T/C (endpoint: mean survival time, dose: 1.88 mg/kg/injection, schedule: Q03HX008 (oral), vehicle: saline): 109 % of control
T/C (endpoint: mean survival time, dose: 1.88 mg/kg/injection, schedule: Q03HX024 (oral), vehicle: saline): 109 % of control
T/C (endpoint: mean survival time, dose: 3.9 mg/kg/injection, schedule: Q04DX003 (ip), vehicle: water): 102 % of control
T/C (endpoint: mean survival time, dose: 5.0 mg/kg/injection, schedule: Q03HX024 (ip), vehicle: water): 122 % of control and 106 % of control
T/C (endpoint: mean survival time, dose: 5.9 mg/kg/injection, schedule: Q04DX003 (ip), vehicle: water): 102 % of control
T/C (endpoint: mean survival time, dose: 6.25 mg/kg/injection, schedule: Q01DX009 (sc), vehicle: saline): 101 % of control
T/C (endpoint: mean survival time, dose: 8.8 mg/kg/injection, schedule: Q04DX003 (ip), vehicle: water): 103 % of control
T/C (endpoint: mean survival time, dose: 10.0 mg/kg/injection, schedule: Q01DX009 (ip), vehicle: water): 112 % of control
T/C (endpoint: mean survival time, dose: 10.0 mg/kg/injection, schedule: Q03HX008 (ip), vehicle: water): 120 % of control
T/C (endpoint: mean survival time, dose: 10.0 mg/kg/injection, schedule: Q03HX016 (ip), vehicle: water): 114 % of control
T/C (endpoint: mean survival time, dose: 10.0 mg/kg/injection, schedule: Q03HX024 (ip), vehicle: clinical formulation): 103 % of control
T/C (endpoint: mean survival time, dose: 10.0 mg/kg/injection, schedule: Q03HX024 (ip), vehicle: saline): 112 % of control
T/C (endpoint: mean survival time, dose: 10.0 mg/kg/injection, schedule: Q03HX024 (ip), vehicle: water): 151 % of control
T/C (endpoint: mean survival time, dose: 12.5 mg/kg/injection, schedule: Q01DX009 (sc), vehicle: saline): 107 % of control
T/C (endpoint: mean survival time, dose: 13.2 mg/kg/injection, schedule: Q04DX003 (ip), vehicle: water): 123 % of control
T/C (endpoint: mean survival time, dose: 15.0 mg/kg/injection, schedule: Q01DX005 (oral), vehicle: saline): 98 % of control
T/C (endpoint: mean survival time, dose: 15.0 mg/kg/injection, schedule: Q01DX009 (oral), vehicle: saline): 116 % of control
T/C (endpoint: mean survival time, dose: 15.0 mg/kg/injection, schedule: Q03HX008 (oral), vehicle: saline): 155 % of control
T/C (endpoint: mean survival time, dose: 15.0 mg/kg/injection, schedule: Q03HX024 (oral), vehicle: saline): 115 % of control
T/C (endpoint: mean survival time, dose: 20.0 mg/kg/injection, schedule: Q01DX009 (sc), vehicle: water): 123 % of control
T/C (endpoint: mean survival time, dose: 20.0 mg/kg/injection, schedule: Q03HX008 (ip), vehicle: water): 123 % of control
T/C (endpoint: mean survival time, dose: 20.0 mg/kg/injection, schedule: Q03HX024 (ip), vehicle: clinical formulation): 108 % of control
T/C (endpoint: mean survival time, dose: 20.0 mg/kg/injection, schedule: Q03HX024 (ip), vehicle: saline): 116 % of control
T/C (endpoint: mean survival time, dose: 20.0 mg/kg/injection, schedule: Q04DX003 (ip), vehicle: water): 123 % of control
T/C (endpoint: mean survival time, dose: 30.0 mg/kg/injection, schedule: Q01DX005 (oral), vehicle: saline): 100 % of control
T/C (endpoint: mean survival time, dose: 30.0 mg/kg/injection, schedule: Q01DX009 (oral), vehicle: saline): 106 % of control
T/C (endpoint: mean survival time, dose: 30.0 mg/kg/injection, schedule: Q04DX003 (oral), vehicle: saline): 101 % of control
T/C (endpoint: mean survival time, dose: 40.0 mg/kg/injection, schedule: Q03HX024 (ip), vehicle: clinical formulation): 121 % of control
T/C (endpoint: mean survival time, dose: 40.0 mg/kg/injection, schedule: Q03HX024 (ip), vehicle: water): 92 % of control
T/C (endpoint: mean survival time, dose: 45.0 mg/kg/injection, schedule: Q04DX003 (ip), vehicle: water): 114 % of control
T/C (endpoint: mean survival time, dose: 50.0 mg/kg/injection, schedule: Q01DX001 (sc), vehicle: saline): 120 % of control
T/C (endpoint: mean survival time, dose: 60.0 mg/kg/injection, schedule: Q01DX005 (oral), vehicle: saline): 111 % of control
T/C (endpoint: mean survival time, dose: 60.0 mg/kg/injection, schedule: Q04DX003 (oral), vehicle: saline): 106 % of control
T/C (endpoint: mean survival time, dose: 80.0 mg/kg/injection, schedule: Q01DX001 (ip), vehicle: water): 104 % of control
T/C (endpoint: mean survival time, dose: 80.0 mg/kg/injection, schedule: Q01DX009 (oral), vehicle: water): 157 % of control
T/C (endpoint: mean survival time, dose: 80.0 mg/kg/injection, schedule: Q03HX024 (ip), vehicle: clinical formulation): 150 % of control
T/C (endpoint: mean survival time, dose: 80.0 mg/kg/injection, schedule: Q03HX024 (ip), vehicle: saline): 154 % of control
T/C (endpoint: mean survival time, dose: 80.0 mg/kg/injection, schedule: Q04DX003 (ip), vehicle: water): 121 % of control
T/C (endpoint: mean survival time, dose: 80.0 mg/kg/injection, schedule: Q08DX002 (ip), vehicle: saline): 102 % of control
T/C (endpoint: mean survival time, dose: 100.0 mg/kg/injection, schedule: Q01DX001 (sc), vehicle: saline): 115 % of control
T/C (endpoint: mean survival time, dose: 120.0 mg/kg/injection, schedule: Q01DX001 (oral), vehicle: saline): 102 % of control
T/C (endpoint: mean survival time, dose: 120.0 mg/kg/injection, schedule: Q01DX005 (oral), vehicle: saline): 123 % of control
T/C (endpoint: mean survival time, dose: 120.0 mg/kg/injection, schedule: Q04DX003 (oral), vehicle: saline): 108 % of control
T/C (endpoint: mean survival time, dose: 160.0 mg/kg/injection, schedule: Q01DX001 (oral), vehicle: water): 115 % of control
T/C (endpoint: mean survival time, dose: 160.0 mg/kg/injection, schedule: Q03HX024 (ip), vehicle: clinical formulation): 152 % of control
T/C (endpoint: mean survival time, dose: 160.0 mg/kg/injection, schedule: Q03HX024 (ip), vehicle: saline): 234 % of control
T/C (endpoint: mean survival time, dose: 200.0 mg/kg/injection, schedule: Q01DX009 (sc), vehicle: saline): 86 % of control
T/C (endpoint: mean survival time, dose: 240.0 mg/kg/injection, schedule: Q01DX001 (oral), vehicle: saline): 107 % of control
T/C (endpoint: mean survival time, dose: 240.0 mg/kg/injection, schedule: Q01DX009 (oral), vehicle: saline): 103 % of control
T/C (endpoint: mean survival time, dose: 240.0 mg/kg/injection, schedule: Q04DX003 (oral), vehicle: saline): 111 % of control
T/C (endpoint: mean survival time, dose: 320.0 mg/kg/injection, schedule: Q03HX024 (ip), vehicle: saline): 86 % of control
T/C (endpoint: mean survival time, dose: 400.0 mg/kg/injection, schedule: Q01DX001 (sc), vehicle: saline): 108 % of control
T/C (endpoint: mean survival time, dose: 480.0 mg/kg/injection, schedule: Q01DX001 (oral), vehicle: saline): 107 % of control
T/C (endpoint: mean survival time, dose: 480.0 mg/kg/injection, schedule: Q01DX005 (oral), vehicle: saline): 97 % of control
T/C (endpoint: mean survival time, dose: 480.0 mg/kg/injection, schedule: Q01DX009 (oral), vehicle: saline): 96 % of control
T/C (endpoint: mean survival time, dose: 640.0 mg/kg/injection, schedule: Q01DX001 (oral), vehicle: water): 108 % of control
T/C (endpoint: mean survival time, dose: 640.0 mg/kg/injection, schedule: Q01DX001 (sc), vehicle: water): 180 % of control
T/C (endpoint: mean survival time, dose: 800.0 mg/kg/injection, schedule: Q01DX001 (sc), vehicle: saline): 106 % of control
T/C (endpoint: mean survival time, dose: 960.0 mg/kg/injection, schedule: Q04DX003 (oral), vehicle: saline): 150 % of control
T/C (endpoint: median survival time, dose: 3.9 mg/kg/injection, schedule: Q01DX009 (ip), vehicle: clinical formulation): 91 % of control
T/C (endpoint: median survival time, dose: 5.0 mg/kg/injection, schedule: Q03HX024 (ip), vehicle: water): 111 % of control
T/C (endpoint: median survival time, dose: 7.8 mg/kg/injection, schedule: Q01DX009 (ip), vehicle: clinical formulation): 94 % of control
T/C (endpoint: median survival time, dose: 10.0 mg/kg/injection, schedule: Q01DX009 (ip), vehicle: water): 88 % of control
T/C (endpoint: median survival time, dose: 10.0 mg/kg/injection, schedule: Q03HX024 (ip), vehicle: water): 122 % of control
T/C (endpoint: median survival time, dose: 10.0 mg/kg/injection, schedule: Q04DX003 (ip), vehicle: water): 111 % of control
T/C (endpoint: median survival time, dose: 15.6 mg/kg/injection, schedule: Q01DX009 (ip), vehicle: clinical formulation): 121 % of control
T/C (endpoint: median survival time, dose: 20.0 mg/kg/injection, schedule: Q01DX009 (oral), vehicle: water): 111 % of control
T/C (endpoint: median survival time, dose: 20.0 mg/kg/injection, schedule: Q03HX024 (ip), vehicle: water): 150 % of control
T/C (endpoint: median survival time, dose: 20.0 mg/kg/injection, schedule: Q04DX003 (ip), vehicle: water): 88 % of control
T/C (endpoint: median survival time, dose: 31.3 mg/kg/injection, schedule: Q01DX009 (ip), vehicle: clinical formulation): 118 % of control
T/C (endpoint: median survival time, dose: 31.3 mg/kg/injection, schedule: Q01DX009 (oral), vehicle: clinical formulation): 121 % of control
T/C (endpoint: median survival time, dose: 31.3 mg/kg/injection, schedule: Q03HX008 (oral), vehicle: clinical formulation): 121 % of control
T/C (endpoint: median survival time, dose: 31.3 mg/kg/injection, schedule: Q03HX024 (oral), vehicle: clinical formulation): 88 % of control
T/C (endpoint: median survival time, dose: 40.0 mg/kg/injection, schedule: Q01DX009 (ip), vehicle: water): 88 % of control
T/C (endpoint: median survival time, dose: 40.0 mg/kg/injection, schedule: Q01DX009 (oral), vehicle: water): 111 % of control
T/C (endpoint: median survival time, dose: 40.0 mg/kg/injection, schedule: Q04DX003 (ip), vehicle: water): 88 % of control
T/C (endpoint: median survival time, dose: 62.5 mg/kg/injection, schedule: Q03HX008 (oral), vehicle: clinical formulation): 164 % of control
T/C (endpoint: median survival time, dose: 62.5 mg/kg/injection, schedule: Q03HX016 (oral), vehicle: clinical formulation): 90 % of control
T/C (endpoint: median survival time, dose: 80.0 mg/kg/injection, schedule: Q04DX003 (ip), vehicle: water): 105 % of control
T/C (endpoint: median survival time, dose: 125.0 mg/kg/injection, schedule: Q01DX009 (oral), vehicle: clinical formulation): 114 % of control
T/C (endpoint: median survival time, dose: 125.0 mg/kg/injection, schedule: Q03HX016 (oral), vehicle: clinical formulation): 90 % of control
T/C (endpoint: median survival time, dose: 125.0 mg/kg/injection, schedule: Q04DX003 (oral), vehicle: clinical formulation): 151 % of control
T/C (endpoint: median survival time, dose: 160.0 mg/kg/injection, schedule: Q01DX009 (oral), vehicle: water): 116 % of control
T/C (endpoint: median survival time, dose: 250.0 mg/kg/injection, schedule: Q01DX001 (oral), vehicle: clinical formulation): 119 % of control
T/C (endpoint: median survival time, dose: 250.0 mg/kg/injection, schedule: Q04DX003 (oral), vehicle: clinical formulation): 184 % of control
T/C (endpoint: median survival time, dose: 250.0 mg/kg/injection, schedule: Q08DX002 (oral), vehicle: clinical formulation): 151 % of control
T/C (endpoint: median survival time, dose: 500.0 mg/kg/injection, schedule: Q01DX001 (oral), vehicle: clinical formulation): 98 % of control
T/C (endpoint: median survival time, dose: 500.0 mg/kg/injection, schedule: Q04DX003 (oral), vehicle: clinical formulation): 98 % of control
T/C (endpoint: median survival time, dose: 500.0 mg/kg/injection, schedule: Q08DX002 (oral), vehicle: clinical formulation): 191 % of control
